ChEMBL document CHEMBL4507291 (2021)

Legend:
[1] = test system: Receptor-type tyrosine-protein kinase FLT3 (Homo sapiens), P36888 [D835V]
[2] = target: T1, Serine/threonine-protein kinase TAO2 (Homo sapiens) (UniProt Q9UL54)
T1 sequence (whole entry): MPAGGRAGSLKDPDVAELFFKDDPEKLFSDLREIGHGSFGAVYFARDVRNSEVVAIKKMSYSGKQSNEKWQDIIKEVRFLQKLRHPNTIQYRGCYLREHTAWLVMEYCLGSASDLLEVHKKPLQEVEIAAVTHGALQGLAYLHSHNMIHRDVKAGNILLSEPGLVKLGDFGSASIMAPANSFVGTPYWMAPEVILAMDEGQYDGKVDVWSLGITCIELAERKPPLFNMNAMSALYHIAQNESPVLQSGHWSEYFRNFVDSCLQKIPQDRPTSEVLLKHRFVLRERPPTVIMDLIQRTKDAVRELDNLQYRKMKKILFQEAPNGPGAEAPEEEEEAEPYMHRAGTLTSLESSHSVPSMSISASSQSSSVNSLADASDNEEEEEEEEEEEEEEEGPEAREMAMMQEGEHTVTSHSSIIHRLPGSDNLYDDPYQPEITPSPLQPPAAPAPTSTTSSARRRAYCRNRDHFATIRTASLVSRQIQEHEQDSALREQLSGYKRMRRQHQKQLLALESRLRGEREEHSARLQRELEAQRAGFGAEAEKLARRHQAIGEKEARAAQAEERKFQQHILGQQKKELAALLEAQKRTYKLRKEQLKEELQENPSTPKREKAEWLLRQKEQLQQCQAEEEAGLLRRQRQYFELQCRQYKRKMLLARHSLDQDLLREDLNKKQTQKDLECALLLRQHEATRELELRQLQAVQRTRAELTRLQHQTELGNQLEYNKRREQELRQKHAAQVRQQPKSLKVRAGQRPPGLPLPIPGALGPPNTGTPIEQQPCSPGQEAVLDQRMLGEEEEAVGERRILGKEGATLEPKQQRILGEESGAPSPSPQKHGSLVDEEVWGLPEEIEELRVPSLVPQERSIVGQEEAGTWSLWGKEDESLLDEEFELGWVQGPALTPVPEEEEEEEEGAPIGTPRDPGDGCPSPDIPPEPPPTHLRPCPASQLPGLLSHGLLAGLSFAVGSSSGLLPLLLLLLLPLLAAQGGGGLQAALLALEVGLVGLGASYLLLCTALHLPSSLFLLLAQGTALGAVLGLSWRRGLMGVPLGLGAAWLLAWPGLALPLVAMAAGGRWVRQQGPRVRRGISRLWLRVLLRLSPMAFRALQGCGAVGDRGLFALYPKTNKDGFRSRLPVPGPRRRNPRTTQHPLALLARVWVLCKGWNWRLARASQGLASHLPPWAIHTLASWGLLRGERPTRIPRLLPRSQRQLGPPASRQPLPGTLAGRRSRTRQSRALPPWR

[3] = target: 5-hydroxytryptamine receptor 2A (Homo sapiens) (UniProt P28223); settings: Compound concentration 10.0 uM
5-hydroxytryptamine receptor 2A (Homo sapiens), sequence (P28223 whole entry): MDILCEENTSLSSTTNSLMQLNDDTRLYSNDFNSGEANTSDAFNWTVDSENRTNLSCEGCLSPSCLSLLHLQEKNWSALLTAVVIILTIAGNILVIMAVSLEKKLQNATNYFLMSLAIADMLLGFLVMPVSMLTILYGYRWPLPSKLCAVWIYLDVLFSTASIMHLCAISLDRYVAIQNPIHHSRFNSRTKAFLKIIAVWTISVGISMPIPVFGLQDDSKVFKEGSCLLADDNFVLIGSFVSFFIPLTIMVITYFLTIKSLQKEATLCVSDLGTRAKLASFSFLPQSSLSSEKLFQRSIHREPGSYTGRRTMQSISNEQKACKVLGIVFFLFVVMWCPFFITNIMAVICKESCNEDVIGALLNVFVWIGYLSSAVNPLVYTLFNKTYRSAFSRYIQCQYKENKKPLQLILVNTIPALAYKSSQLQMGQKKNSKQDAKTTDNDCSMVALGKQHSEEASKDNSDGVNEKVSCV

[4] = target: T2, Serine/threonine-protein kinase NLK (Homo sapiens) (UniProt Q9UBE8)
T2 sequence (whole entry): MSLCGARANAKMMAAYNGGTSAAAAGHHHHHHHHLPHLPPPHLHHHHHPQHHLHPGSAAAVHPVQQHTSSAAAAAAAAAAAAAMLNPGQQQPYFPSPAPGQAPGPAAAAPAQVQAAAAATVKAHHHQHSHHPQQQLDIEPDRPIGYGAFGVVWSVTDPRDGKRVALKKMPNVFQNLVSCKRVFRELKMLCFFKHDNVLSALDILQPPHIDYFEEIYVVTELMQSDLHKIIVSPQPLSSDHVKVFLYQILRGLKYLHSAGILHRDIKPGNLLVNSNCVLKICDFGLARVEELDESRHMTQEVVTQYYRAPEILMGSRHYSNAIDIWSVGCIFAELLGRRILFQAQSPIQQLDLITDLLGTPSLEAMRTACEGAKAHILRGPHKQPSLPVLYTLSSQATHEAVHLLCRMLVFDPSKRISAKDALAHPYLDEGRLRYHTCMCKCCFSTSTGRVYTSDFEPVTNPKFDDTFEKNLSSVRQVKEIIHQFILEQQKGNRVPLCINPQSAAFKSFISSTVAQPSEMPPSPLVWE

[5] = target: T3, Protein kinase C epsilon type (Homo sapiens) (UniProt Q02156)
T3 sequence (whole entry): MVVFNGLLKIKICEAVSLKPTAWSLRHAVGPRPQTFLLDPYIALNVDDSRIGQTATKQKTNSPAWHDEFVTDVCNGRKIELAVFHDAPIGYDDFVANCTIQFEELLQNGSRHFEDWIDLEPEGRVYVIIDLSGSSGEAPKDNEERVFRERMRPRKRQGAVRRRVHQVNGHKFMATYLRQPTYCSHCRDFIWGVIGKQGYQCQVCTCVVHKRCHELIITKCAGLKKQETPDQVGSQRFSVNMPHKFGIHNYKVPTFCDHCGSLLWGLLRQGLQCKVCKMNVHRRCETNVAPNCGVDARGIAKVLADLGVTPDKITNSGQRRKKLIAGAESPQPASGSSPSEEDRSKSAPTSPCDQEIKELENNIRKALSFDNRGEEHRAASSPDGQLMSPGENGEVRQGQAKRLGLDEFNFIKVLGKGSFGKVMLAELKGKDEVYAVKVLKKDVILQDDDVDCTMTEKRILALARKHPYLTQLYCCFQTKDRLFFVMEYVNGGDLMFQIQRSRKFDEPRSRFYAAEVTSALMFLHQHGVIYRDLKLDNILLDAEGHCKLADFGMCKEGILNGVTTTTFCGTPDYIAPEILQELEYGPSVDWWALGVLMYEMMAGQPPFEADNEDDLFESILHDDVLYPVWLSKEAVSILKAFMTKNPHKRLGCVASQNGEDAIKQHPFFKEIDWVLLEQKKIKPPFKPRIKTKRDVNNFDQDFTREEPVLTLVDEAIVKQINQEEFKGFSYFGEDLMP

[6] = test system: Tyrosine-protein kinase ABL1 (Homo sapiens), P00519 [F317L]
Tyrosine-protein kinase ABL1 (Homo sapiens), P00519 [F317L], sequence (P00519 whole entry F317L): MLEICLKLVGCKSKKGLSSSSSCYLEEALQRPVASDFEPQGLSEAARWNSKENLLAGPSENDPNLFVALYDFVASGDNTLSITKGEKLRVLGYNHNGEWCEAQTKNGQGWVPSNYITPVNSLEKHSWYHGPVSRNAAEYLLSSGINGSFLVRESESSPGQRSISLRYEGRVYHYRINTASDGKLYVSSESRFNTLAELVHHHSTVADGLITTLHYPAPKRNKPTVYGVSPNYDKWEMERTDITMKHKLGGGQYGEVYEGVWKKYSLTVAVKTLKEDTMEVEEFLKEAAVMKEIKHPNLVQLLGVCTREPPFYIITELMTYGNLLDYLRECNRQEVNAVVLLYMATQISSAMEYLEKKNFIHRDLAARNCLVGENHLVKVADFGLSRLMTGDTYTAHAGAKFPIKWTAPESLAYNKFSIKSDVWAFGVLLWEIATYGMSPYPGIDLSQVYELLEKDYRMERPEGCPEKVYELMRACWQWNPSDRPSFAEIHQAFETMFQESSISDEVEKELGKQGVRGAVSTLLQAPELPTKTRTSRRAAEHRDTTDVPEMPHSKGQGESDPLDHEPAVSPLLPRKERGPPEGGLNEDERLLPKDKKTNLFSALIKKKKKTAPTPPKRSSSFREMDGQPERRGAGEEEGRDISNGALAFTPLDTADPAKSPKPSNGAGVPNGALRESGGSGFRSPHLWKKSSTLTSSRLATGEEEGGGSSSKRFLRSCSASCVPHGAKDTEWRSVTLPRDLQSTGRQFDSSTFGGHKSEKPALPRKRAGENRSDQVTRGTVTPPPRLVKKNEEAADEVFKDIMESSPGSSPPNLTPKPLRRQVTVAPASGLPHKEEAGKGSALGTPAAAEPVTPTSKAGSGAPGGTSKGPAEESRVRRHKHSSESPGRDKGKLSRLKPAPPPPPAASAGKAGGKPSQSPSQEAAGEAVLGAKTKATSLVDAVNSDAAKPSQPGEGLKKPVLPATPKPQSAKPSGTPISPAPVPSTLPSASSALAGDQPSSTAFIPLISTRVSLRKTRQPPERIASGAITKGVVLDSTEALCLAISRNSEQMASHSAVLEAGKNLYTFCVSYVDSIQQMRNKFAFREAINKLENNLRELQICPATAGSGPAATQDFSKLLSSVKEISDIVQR

[7] = target: Death-associated protein kinase 1 (Homo sapiens) (UniProt P53355)
Death-associated protein kinase 1 (Homo sapiens), sequence (P53355 whole entry, looked up): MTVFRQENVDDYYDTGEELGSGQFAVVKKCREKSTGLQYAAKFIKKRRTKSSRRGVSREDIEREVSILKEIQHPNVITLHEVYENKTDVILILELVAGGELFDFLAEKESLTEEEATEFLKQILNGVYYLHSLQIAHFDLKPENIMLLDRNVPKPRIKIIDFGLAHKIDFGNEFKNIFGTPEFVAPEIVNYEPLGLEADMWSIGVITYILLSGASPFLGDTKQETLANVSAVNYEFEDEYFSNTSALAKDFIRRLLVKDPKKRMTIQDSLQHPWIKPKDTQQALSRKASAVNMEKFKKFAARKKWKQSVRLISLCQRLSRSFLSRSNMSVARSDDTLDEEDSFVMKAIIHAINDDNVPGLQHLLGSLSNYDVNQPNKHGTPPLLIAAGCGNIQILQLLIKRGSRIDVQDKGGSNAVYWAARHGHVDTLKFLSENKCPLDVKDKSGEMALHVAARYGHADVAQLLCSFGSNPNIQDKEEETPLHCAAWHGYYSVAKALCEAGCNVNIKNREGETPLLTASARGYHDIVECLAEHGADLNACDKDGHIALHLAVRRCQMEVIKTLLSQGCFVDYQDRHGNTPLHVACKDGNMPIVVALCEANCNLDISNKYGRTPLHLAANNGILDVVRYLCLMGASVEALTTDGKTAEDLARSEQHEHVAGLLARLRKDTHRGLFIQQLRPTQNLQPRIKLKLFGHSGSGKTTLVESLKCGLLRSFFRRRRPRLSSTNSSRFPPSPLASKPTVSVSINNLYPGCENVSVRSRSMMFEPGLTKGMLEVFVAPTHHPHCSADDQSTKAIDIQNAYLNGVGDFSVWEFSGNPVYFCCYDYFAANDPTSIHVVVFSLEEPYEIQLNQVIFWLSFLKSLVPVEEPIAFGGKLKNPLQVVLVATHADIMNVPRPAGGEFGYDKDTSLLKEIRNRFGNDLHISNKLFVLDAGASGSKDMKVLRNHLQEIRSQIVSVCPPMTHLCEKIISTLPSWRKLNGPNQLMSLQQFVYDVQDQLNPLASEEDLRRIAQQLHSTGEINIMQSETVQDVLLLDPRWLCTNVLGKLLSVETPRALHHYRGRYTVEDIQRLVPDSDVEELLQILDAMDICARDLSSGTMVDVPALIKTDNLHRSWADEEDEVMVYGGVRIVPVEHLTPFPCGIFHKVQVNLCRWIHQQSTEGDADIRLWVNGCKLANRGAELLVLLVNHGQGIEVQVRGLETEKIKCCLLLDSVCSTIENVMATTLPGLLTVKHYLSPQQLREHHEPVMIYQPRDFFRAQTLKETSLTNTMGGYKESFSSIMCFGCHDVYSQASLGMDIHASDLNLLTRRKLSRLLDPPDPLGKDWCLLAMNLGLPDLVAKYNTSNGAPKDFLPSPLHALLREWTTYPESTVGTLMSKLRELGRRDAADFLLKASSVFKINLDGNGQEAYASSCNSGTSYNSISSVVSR

[8] = Compound concentration 1000.0 nM
[9] = Compound concentration 100.0 nM

C[C@@H]1CN(c2cc(-c3nn(C)c4ccc(OC5(C)CC5)cc34)ncn2)C[C@H](C)O1 [MLi-2-NC]
inactive: residual activity [1, 8] 86% | residual activity [2, 8] 80% | inhibition [3] 3.31% | residual activity [4, 8] 96% | residual activity [5, 8] 100% | residual activity [6, 8] 67% | residual activity [7, 8] 100%

C[C@@H]1CN(c2cc(-c3n[nH]c4ccc(OC5(C)CC5)cc34)ncn2)C[C@H](C)O1 [MLi-2]
inactive: residual activity [1, 9] 73% | residual activity [2, 9] 73% | inhibition [3] 2.75% | residual activity [4, 9] 100% | residual activity [5, 9] 95% | residual activity [6, 9] 73% | residual activity [7, 9] 93%
